Laboratory results as given in patent publication EP3895686A1, “NATURAL COMPOSITION FOR HAIR GROWTH STIMULATION AND HAIR LOSS PREVENTION AND TREATMENT” (FRAUNHOFER-GESELLSCHAFT zur Förderung der angewandten …, priority 2020, dated 2021).

Tests used:
Assay type in all cases: cell-based
[1] = test system: Human Follicle Dermal Papilla Cells (HFDPC); assay: Assessment of cell morphology by phase contrast microscopy; conditions: for cell adherence and proliferation (summary of morphology): diosgenin concentration-dependent
Protocol: (§1) First, Human Follicle Dermal Papilla Cells (HFDPC) cells were thawed and seeded into collagen-coated cell culture flasks (T25). Then the medium was changed every 48 h. After 4 days the cells were trypsinized and seeded in T75 cell culture flask. In preparation for the final experiment, the cells were trypsinized and then counted with a cell counter. The cell concentration was then adjusted in a defined amount of medium followed by seeding of the cells in 96-well plates for the subsequent cell impedance measurements (5000 cells per well) or in 24-well plates (20000 cells per well). Subsequently, the cells were cultivated for 7 days in pure culture medium with regular medium changes after 2-3 days. After 7 days, the medium with the additives listed in Table 1 was added (designated as day 0), followed by a 3-week cultivation of the cells. The medium (and addition of fresh active substances) was changed every 2-3 days. […] The following examinations were carried out after 7, 14 and 21 days.
Cell morphology was assessed through microscopic examination of the cells with an inverted microscope (phase contrast microscopy) at 10x and 20x primary magnification. The morphology of the cells provides information on the adherence behaviour of the cells,possible cell activation and cell stress. This examination was carried out on a 24-well scale.

[2] = test system: Human Follicle Dermal Papilla Cells (HFDPC); assay: VEGF-ELISA (VEGF secretion)
Protocol: VEGF belongs to the signal molecules and stimulates the proliferation and migration of HFDPC. HFDPC generate more VEGF in the anagen phase. Thus, VEGF is an indication of the anagen phase of a hair. The detection of the VEGF protein was performed with the Human VEGF ELISA Kit from Invitrogen. The procedure was performed according to the protocol contained in the test kit with the cell supernatants previously frozen at -80°C. The removal of the cell culture supernatants was carried out on a 24-well scale. A higher value for the VEGF [pg/ml] (y-axis) means a higher value of detected VEGF. A higher VEGF value is an indication for a longer anagen phase. A longer anagen phase is an indication for more hair growth.
as §1
VEGF belongs to the signal molecules and stimulates the proliferation and migration of HFDPC. HFDPC generate more VEGF in the anagen phase. Thus VEGF is an indication of the anagen phase of a hair. […] The detection of the VEGF protein was performed with the Human VEGF ELISA Kit from invitrogen. The procedure was performed according to the protocol contained in the test kit with the cell supernatants previously frozen at -80°C. The removal of the cell culture supernatants was carried out on a 24-well scale.
VEGF was analyzed in the cell culture supernatant to check whether the active ingredients have an influence on cell function and, if so, whether they promote the release of VEGF (see figure).

[3] = test system: Human Follicle Dermal Papilla Cells (HFDPC); assay: Cell count after trypsination; conditions: for cell number compared to untreated cells: depending on concentration and time; for influence on the cell count (conclusion): over 3 weeks
Protocol: as §1
This investigation was performed on a 24-well scale.
To perform this investigation 5000 cells per well were seeded in the 96-wells with the addition of a maximum of 200 µl medium. The cells were grown for 7 days in pure cell culture medium. The medium was changed every 2-3 days, whereby 100 µl of old medium was removed and replaced by 100 µl of new medium. After 7 days the "pure" cell culture medium was completely removed and medium with the respective additives was added. The cells were then cultivated for 3 weeks with regular replacement of the medium with the respective additives. Cell counting after trypsinizing: The exact cell count of HFDPC was determined after trypsination of the cells in the respective well and uptake of the resulting cell pellets in medium. All pellets of one sample were combined in a cell culture vessel and then counted with a cell counter.

[4] = test system: Human Follicle Dermal Papilla Cells (HFDPC); assay: Cell impedance test on proliferation and toxicity (xCELLigence, cell index)
Protocol: The influence of various substances on the growth of HDPFC was investigated with the aid of a cell impedance device (xCELLigence® RTCA DP).
To perform this study 5000 HFDPC (Passage: 5) per well were seeded in the 16-well wells, coated on 50 µL collagen with the addition of a maximum of 200 µl medium. The cells were grown for 96 h in pure cell culture medium. After 96 h the "pure" cell culture medium was completely removed and medium with the respective additives was added. A further change with the respective additives took place after 48 h.
The CI (y-axis) is thus a measure of cell proliferation, cell morphology and cell vitality (only vital, adherent HFDPC can proliferate) overtime (x-axis).
The investigation of cell proliferation (cell index CI) or the exact determination of the cell number was carried out in order to detect a possible cytotoxic effect of the substances after addition to the cells. At the beginning of the experiment, the cells were confluently seeded in order to be able to " focus " on the induction of hair growth afterwards.
The influence of various substances on the growth of HDPFC was investigated with the aid of a cell impedance device (xCELLigence® RTCA DP). The xCELLigence® system consists of a measuring unit and software that allows to follow the cell invasion and migration in real time without the influence of additional substances for cell visualization, which could potentially have an impact on the cells. The system measures the electrical impedance via microelectrodes integrated on the bottom of the tissue culture E-plate. It enables the monitoring of changes in adhesion, spreading and proliferation of different cell types in real time, based on the measured cell-electrode impedance. […] This index is composed as follows: CI = (Rtn −Rt0)/(Fi) [formula]
Rtn and Rt0 are the frequency-dependent electrode resistances (a component of the impedance), where Rt0 is measured at time T0 (without cells) and Rtn with cells present. Fi depends on the frequency used in the measurement. Thus CI is a quantitative measure of the number of cells in an electrode-containing well, when comparing the same cell types. Under the same physiological conditions, more cells adhered to the electrodes result in a higher Rtn value, which leads to a higher value for CI. In the absence of living cells (cell culture medium only) or in a suspension of dead cells, the cell index values are close to zero. After cellular attachment to the electrode, the measurement signal correlates linearly with the cell count throughout the experiment. This investigation was performed on a 96-well scale. To perform this study 5000 HFDPC (Passage: 5) per well were seeded in the 96-well wells, coated on 50 µL collagen with the addition of a maximum of 200 µl medium. The cells were grown for 96 h in pure cell culture medium. After 96 h the "pure" cell culture medium was completely removed and medium with the respective additives was added. A further change with the respective additives took place after 48 h. The CI is thus a measure of cell proliferation, cell morphology and cell vitality (only vital, adherent HFDPC can proliferate). (FIG 11)

[5] = test system: Human Follicle Dermal Papilla Cells (HFDPC); assay: Immunofluorescent staining of vimentin; conditions: 2c (higher concentration)
[6] = one week after addition of the active ingredients
[7] = 250 µg/mL in medium, first 24 hours after addition
[8] = 1c (lower concentration), after 3 weeks

CCCCCC[C@@H](O)C/C=C\CCCCCCCC(=O)O [ricinoleic acid, 12-hydroxy-9-cis-octadecenoic acid]
cell morphology / confluence ([1]; after 3 weeks, both concentrations): confluent, very dense monolayer and an elongated cell shape
cell adherence and proliferation (summary of morphology) ([1]; after 3 weeks): very beneficial for cell adherence and proliferation
cell morphology / confluence [1, 6]: greater confluence
cell morphology / confluence ([1]; second week of the experiment): very high confluence in the well and elongated, typical growth
VEGF release ([2]; 2.c (higher concentration), after 3 weeks): lower VEGF release
cell count ([3]; after 1 week, compared to untreated cells): the difference was visible in both treated groups compared to untreated cells
cell number compared to untreated cells [3]: significant increase in cell count
influence on the cell count (conclusion) [3]: positive influence on the cell count
cell index ([4]; 100µg/mL, after 24 h and 48 h addition): remained constant
cell index [4, 7]: positive influence on the cell index
toxic effect on the cells [4, 7]: does not appear to have a toxic effect
cell index ([4]; 250 µg/mL, after 48h of repeated addition): decreases

CCCCC/C=C\C/C=C\C/C=C\C/C=C\CCCC(=O)[O-].[Na+] [arachidonate, Sodium Arachidonate]
cell morphology / confluence ([1]; second week of the experiment): almost the same morphology
cell density ([1]; second week, higher concentration): higher cell density
VEGF release [2, 8]: lower VEGF release
cell count ([3]; after 3 weeks, higher concentration, compared to untreated cells): increase in HFDPC
cell count ([3]; entire duration of the experiment, independent of time and concentration): did not negatively affect the cell count
cell count ([3]; over 2 weeks): remained constant
cell spreading and attachment to the cell culture substrate (vimentin staining) [5]: able to clearly spread and attach to the cell culture substrate
cell index ([4]; 50 µg/mL in medium): increase the cell index
toxic effect on the cells ([4]; 50 µg/mL in medium): does not have a toxic effect
toxic effect on the cells ([4]; 100µg/mL in medium): has a toxic effect

C[C@@H]1CC[C@@]2(OC1)O[C@H]1C[C@H]3[C@@H]4CC=C5C[C@@H](O)CC[C@]5(C)[C@H]4CC[C@]3(C)[C@H]1[C@@H]2C [diosgenin, Diosgenin]
cell morphology / confluence ([1]; after 3 weeks, lower concentration): resembled untreated cells
cell adherence and proliferation (summary of morphology) ([1]; after 3 weeks): very beneficial for cell adherence and proliferation
cell morphology / confluence [1, 6]: greater confluence
cell morphology / confluence ([1]; second week of the experiment): very high confluence in the well and elongated, typical growth
VEGF release ([2]; 1c (lower concentration), after 1 week): lower VEGF release
VEGF release [2, 8]: lower VEGF release
number of HDFPC over time ([3]; 1c): remained constant after addition of Diosgenin 1c, but was increased compared to untreated cells
cell number over time ([3]; 2c, compared to untreated and Diosgenin 1c treated cells): significant increase in cell number
cell number compared to untreated cells [3]: positive influence on the cell number
influence on the cell count (conclusion) [3]: positive influence on the cell count
cell spreading and attachment to the cell culture substrate (vimentin staining) [5]: able to clearly spread and attach to the cell culture substrate
toxic effect on the cells ([4]; measured maximum concentration of 500 µg/mL): not toxic
